# Assay results: patent US20100298141A1, “SUBSTITUTED PYRIDINE N-OXIDE HERBICIDES” (E. I. DU PONT DE NEMOURS AND COMPANY, priority 2007, published 2010)
# Legend:
# [1] = test system: redroot pigweed; assay: Test A pre-/postemergence greenhouse test; assay type: in vivo, Amaranthus retroflexus; settings: for Plant response rating, Pigweed: 0 to 100 scale where 0 is no effect and 100 is complete control; for Pigweed plant response rating: 0 to 100 scale
# Outline: (§1)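 Herbicidal effect is a visual injury score given about ten days post-treatment by comparison with untreated controls. Preemergence plots received a directed spray onto sown loam–sand soil; postemergence plants, at the one- to two-leaf stage and 2–10 cm tall, were sprayed at the same time.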
# [2] = test system: corn; assay: Test A pre-/postemergence greenhouse test; assay type: in vivo, Zea mays; settings: for Plant response rating, Corn: 0 to 100 scale where 0 is no effect and 100 is complete control; for Corn plant response rating: 0 to 100 scale
# Outline: as §1
# [3] = test system: blackgrass; assay: Test C pre-/postemergence test; assay type: in vivo, Alopecurus myosuroides; settings: Postemergence; for Plant response rating, Blackgrass: scale 0 to 100, 0 no effect, 100 complete control
# Source text: (§2) Seeds of plant species selected from blackgrass (Alopecurus myosuroides), downy brome (Bromus tectorum), green foxtail (Setaria viridis), Italian ryegrass (Lolium multiflorum), wheat (Triticum aestivum), wild oat (Avena fatua), catchweed bedstraw (Galium aparine), Russian thistle (Salsola kali), […] (Cynodon dactylon), Surinam grass (Brachiaria decumbens), cocklebur (Xanthium strumarium), corn (Zea mays), crabgrass (Digitaria sanguinalis), woolly cupgrass (Eriochloa villosa), giant foxtail (Setaria faberii), Goosegrass (Eleusin indica), johnsongrass (Sorghum halepense), kochia (Kochia scoparia), lambsquarters (Chenopodium album), morningglory (Ipomoea coccinea), eastern black nightshade (Solanum ptycanthum), yellow nutsedge (Cyperus esculentus), pigweed (Amaranthus retroflexus), common ragweed (Ambrosia elation), soybean (Glycine max), common (oilseed) sunflower (Helianthus annuus), and velvetleaf (Abutilon theophrasti) were planted and treated preemergence with test chemicals formulated in a non-phytotoxic solvent mixture which included a surfactant. At the same time, plants selected from these crop and weed species and also winter barley (Hordeum vulgare), canarygrass (Phalaris minor), and chickweed (Stellaria media) were treated with postemergence applications of some of the test chemicals formulated in the same manner. Plants ranged in height from 2 to 18 cm (1- to 4-leaf stage) for postemergence treatments. […] At time of treatment, test pots were flooded to 3 cm above the soil surface, treated by application of test compounds directly to the paddy water, and then maintained at that water depth for the duration of the test. […] A dash (-) response means no test result.
# [4] = test system: wheat; assay: Test C pre-/postemergence test; assay type: in vivo, Triticum aestivum; settings: Postemergence; for Plant response rating, Wheat: scale 0 to 100, 0 no effect, 100 complete control
# Source text: as §2
# [5] = test system: wild oat; assay: Test C pre-/postemergence test; assay type: in vivo, Avena fatua; settings: Postemergence; for Plant response rating, Oat, Wild: scale 0 to 100, 0 no effect, 100 complete control
# Source text: as §2
# [6] = test system: bermudagrass; assay: Test C pre-/postemergence test; assay type: in vivo, Cynodon dactylon; settings: Postemergence; for Plant response rating, Bermudagrass: scale 0 to 100, 0 no effect, 100 complete control
# Source text: as §2
# [7] = test system: Surinam grass; assay: Test C pre-/postemergence test; assay type: in vivo, Brachiaria decumbens; settings: Postemergence; for Plant response rating, Surinam Grass: scale 0 to 100, 0 no effect, 100 complete control
# Source text: as §2
# [8] = test system: crabgrass; assay: Test C pre-/postemergence test; assay type: in vivo, Digitaria sanguinalis; settings: Postemergence; for Plant response rating, Crabgrass, Large: scale 0 to 100, 0 no effect, 100 complete control
# Source text: as §2
# [9] = test system: kochia; assay: Test C pre-/postemergence test; assay type: in vivo, Kochia scoparia; settings: Postemergence; for Plant response rating, Kochia: scale 0 to 100, 0 no effect, 100 complete control
# Source text: as §2
# [10] = test system: pigweed; assay: Test C pre-/postemergence test; assay type: in vivo, Amaranthus retroflexus; settings: Postemergence; for Plant response rating, Pigweed: scale 0 to 100, 0 no effect, 100 complete control
# Source text: as §2
# [11] = test system: velvetleaf; assay: Test C pre-/postemergence test; assay type: in vivo, Abutilon theophrasti; settings: Postemergence; for Plant response rating, Velvetleaf: scale 0 to 100, 0 no effect, 100 complete control
# Source text: as §2
# [12] = test system: rice; assay: Test C flooded paddy test; assay type: in vivo, Oryza sativa; settings: Flood
# Outline: (§3)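 Under a constant 3 cm flood, test compounds went directly into the paddy water. Following 13 to 15 days of greenhouse growth, treated species and controls were compared by eye.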
# [13] = test system: duck salad; assay: Test C flooded paddy test; assay type: in vivo, Heteranthera limosa; settings: Flood
# Outline: as §3
# [14] = test system: barnyardgrass; assay: Test C flooded paddy test; assay type: in vivo, Echinochloa crus-galli; settings: Flood
# Outline: as §3
# [15] = Postemergence, 500 g ai/ha, 0 is no effect, 100 is complete control
# [16] = Preemergence, 125 g ai/ha, 0 no effect, 100 complete control
# [17] = 62 g ai/ha, scale 0 to 100 (0 no effect, 100 complete control)
# [18] = 250 g ai/ha, scale 0 to 100, 0 no effect, 100 complete control, 13 to 15 days
smiles,measurement,setting,value
CCn1nc(C(F)(F)F)c(C(C)S(=O)(=O)c2cccc[n+]2[O-])c1OCC(F)(F)F (centres unmarked) [Compound 69],"Plant response rating, Pigweed","[1]; Postemergence, 125 g ai/ha",30
same,Pigweed plant response rating,[1]; [15],90
same,Pigweed plant response rating,[1]; [16],70
same,"Plant response rating, Pigweed","[1]; Preemergence, 500 g ai/ha",100
same,"Plant response rating, Corn","[2]; Postemergence, 125 g ai/ha",60
same,Corn plant response rating,[2]; [15],80
same,Corn plant response rating,[2]; [16],0
same,"Plant response rating, Corn","[2]; Preemergence, 500 g ai/ha",80
same,"Plant response rating (0 to 100), Blackgrass",[3]; 31 g ai/ha,0
same,"Plant response rating, Blackgrass",[3]; 62 g ai/ha,0
same,"Plant response rating, Blackgrass",[3]; 125 g ai/ha,85
same,"Plant response rating, Blackgrass",[3]; 250 g ai/ha,95
same,"Plant response rating (0 to 100), Wheat",[4]; 31 g ai/ha,0
same,"Plant response rating (0 to 100), Wheat",[4]; 62 g ai/ha,0
same,"Plant response rating, Wheat",[4]; 125 g ai/ha,20
same,"Plant response rating, Wheat",[4]; 250 g ai/ha,50
same,"Plant response rating (0 to 100), Oat, Wild",[5]; 31 g ai/ha,0
same,"Plant response rating, Oat, Wild",[5]; 62 g ai/ha,0
same,"Plant response rating, Oat, Wild",[5]; 125 g ai/ha,0
same,"Plant response rating, Oat, Wild",[5]; 250 g ai/ha,90
same,"Plant response rating (0 to 100), Bermudagrass",[6]; 31 g ai/ha,0
same,"Plant response rating, Bermudagrass",[6]; 62 g ai/ha,0
same,"Plant response rating, Bermudagrass",[6]; 125 g ai/ha,0
same,"Plant response rating, Bermudagrass",[6]; 250 g ai/ha,50
same,"Plant response rating (0 to 100), Surinam Grass",[7]; 31 g ai/ha,0
same,"Plant response rating (0 to 100), Surinam Grass",[7]; 62 g ai/ha,0
same,"Plant response rating, Surinam Grass",[7]; 125 g ai/ha,0
same,"Plant response rating, Surinam Grass",[7]; 250 g ai/ha,0
same,"Plant response rating (0 to 100), Crabgrass, Large",[8]; 31 g ai/ha,0
same,"Plant response rating, Crabgrass, Large",[8]; 62 g ai/ha,0
same,"Plant response rating, Crabgrass, Large",[8]; 125 g ai/ha,0
same,"Plant response rating, Crabgrass, Large",[8]; 250 g ai/ha,0
same,"Plant response rating (0 to 100), Kochia",[9]; 31 g ai/ha,0
same,"Plant response rating, Kochia",[9]; 62 g ai/ha,0
same,"Plant response rating, Kochia",[9]; 125 g ai/ha,0
same,"Plant response rating, Kochia",[9]; 250 g ai/ha,0
same,"Plant response rating (0 to 100), Pigweed",[10]; 31 g ai/ha,0
same,"Plant response rating (0 to 100), Pigweed",[10]; 62 g ai/ha,0
same,"Plant response rating, Pigweed",[10]; 125 g ai/ha,0
same,"Plant response rating, Pigweed",[10]; 250 g ai/ha,0
same,"Plant response rating (0 to 100), Velvetleaf",[11]; 31 g ai/ha,0
same,"Plant response rating (0 to 100), Velvetleaf",[11]; 62 g ai/ha,0
same,"Plant response rating, Velvetleaf",[11]; 125 g ai/ha,0
same,"Plant response rating, Velvetleaf",[11]; 250 g ai/ha,0
same,"Plant response rating, Rice",[12]; [17],40
same,"Plant response rating, Rice",[12]; [18],70
same,"Plant response rating, Ducksalad",[13]; [17],70
same,"Plant response rating, Ducksalad",[13]; [18],100
same,"Plant response rating, Barnyardgrass",[14]; [17],0
same,"Plant response rating, Barnyardgrass",[14]; [18],75
